This is an account of results in US7943759B2, “3-β-D-ribofuranosylthiazolo[4-5-d]pyrimidine nucleosides and uses thereof” (Anadys Pharmaceuticals, Inc., priority 2001, dated 2011).

For orientation: melting point means the temperature of the solid-liquid transition.

Structures can show the parent of a compound that is named as a salt. Where two headings read alike, the source gives them in different places.

In data set [1] the test system is Interferon Alpha (Mu-IFN-α). Briefly: Murine interferon alpha (Mu-IFN-α) in plasma of mice after oral dosing. The note with it: for mice with detectable interferon in plasma, of the mice used: mice of Tables 1, 2 and 3, oral dosing. Type of data set: in vivo. From the text:
The normal mouse provides a useful system for the assessment of the degree to which the inventions described herein provide material improvement in the oral delivery of 1 (isatoribine). Not only can one measure the plasma concentrations of isatoribine arising from oral administration of the said prodrug(s) but also the extensive immunological research conducted in the mouse has provided reagents suitable for measuring the levels of interferon alpha, a cytokine of interest reflecting one of the desired biologic activities of isatoribine. […] Table 1 records the results of an assay for murine interferon alpha in the plasma of mice that were dosed two times with isatoribine, formulated in bicarbonate, at a level of 50 mg/kg by the oral route. […] Table 2 records the results of assays for murine interferon alpha in the plasma of mice that first were dosed with bicarbonate and then four hours later were dosed orally with isatoribine, formulated in bicarbonate, at a level of 50 mg/kg. Interferon was reported in the plasma from four mice, including two that had received the bicarbonate vehicle dose. […] Table 3 records the results of assays for murine interferon alpha in the plasma of mice that were dosed orally with val-isatoribine, dissolved in bicarbonate, at a dose that is equivalent to 50/mg/kg of isatoribine on a molar basis. […] Interferon was detected in all mice assayed at a given time point, indicating the reliability of the effect following val-isatoribine administration. […] The data tabulated in Tables 1, 2, and 3 may be also considered from the point of view of the incidence of measurable interferon levels.

For data set [2] the following is noted: dog, in vivo, iv, 12.5 mg/kg.
Procedure: (§1) Formal toxicology studies of intravenously administered isatoribine and orally administered isatoribine and val-isatoribine were conducted in beagle dogs.
(§2) In each case the compound was administered as a solution, by gavage or by intravenous infusion. Multiple parameters were assessed, as is customary in a toxicology study. In the studies providing higher potential exposure to isatoribine, the plasma concentration of isatoribine was assessed by a LC/MS method.
The conditions of data set [3]: cited from earlier work.
A short description of data set [4]: Toxicology studies in dogs: GI tolerance (emesis, loose stool, GI lesions) and isatoribine exposure.
Procedure: as §1, §2
A short description of data set [5]: Systemic exposure to isatoribine after oral administration to beagle dogs (plasma HPLC-MS/MS). As to conditions: at both 10 and 50 mg/kg dose. Type of data set: in vivo. How it is done: The effect of a prodrug (val-isatoribine, 3) on the systemic exposure to isatoribine (1) after oral administration to beagle dogs was investigated. Isatoribine was prepared in sodium bicarbonate solution.
Four male and four female adult beagle dogs weighing between 15 to 27 kg and approximately 1-2 years old were used at the beginning of the study. The animals were divided into 2 groups of 2 males and 2 females each. The test material was administered by gavage on Days 1 and 8, allowing a 7-day washout period between administrations. Blood samples (2 mL) were collected from each animal at predose, 15, 30 minutes, 1, 2, 3, 4, 6, 8 and 10 hours into lithium heparin tubes after each dosing. The plasma was frozen at −70° C. until analysis. The plasma was analyzed for isatoribine by an HPLC-MS/MS assay.
The ratios for the key pharmacokinetic parameters defining the maximum concentration (Cmax) and total exposure as measured by the area under the time-concentration curve (AUC) for the prodrug and the bicarbonate solution at the 50 mg/kg dose are summarized in Table 6.

In a further data set the test system is Caco-2 cells. The note with it: human. How it is done:
In vitro drug transport assays using differentiated and P-glycoprotein-expressing Caco2 cell monolayers are widely used to predict absorption rates of candidate drug compounds across the intestinal epithelial cell barrier. See, e.g., Hilgers, A. R. et al., Pharm.
Caco-2 cells (obtained from ATCC) are grown to confluency on permeable membranes in chambers allowing access to both the apical and basolateral sides of the membrane. The intact nature of the resulting cellular membrane is assessed using transepithelial electrical resistance. The test compound is added at a known concentration to the apical side of the membrane and the rate of appearance of the compound on the basolateral side of the membrane is assessed by analysis using either HPLC or LC-MS/MS.

In data set [6] the test system is Cynomolgus monkey hepatocytes. The note with it: 2 h, 10 μm/ml. As to the method: Hepatocyes often are used to assess the degree to which a compound may be transformed in the body of an animal, and it is known that such transformations may vary with hepatocytes from different species in a way that reflects metabolism in the whole animal.
Cynomolgus monkey hepatocytes were purchased from a commercial supplier and used within 48 hours of preparation. Compounds were prepared in culture media at a concentration of 10 μm/ml and incubated in a standard system with 1,000,000 viable hepatocytes per ml for 2 hours at 37 degrees. The extent of conversion at the end of the incubation period was assessed by measuring 1 by LC-MS/MS.

The mark [7] stands for this setting: dogs, oral isatoribine, 2.5 mg/kg isatoribine equivalent applied dose.
Setting [8] is: IV isatoribine, 25 mg/kg applied dose.
[9] abbreviates: oral val-isatoribine, 8.1 mg/kg isatoribine equivalent applied dose.
Setting [10] is: oral val-isatoribine, 16 mg/kg isatoribine equivalent applied dose.
[11] abbreviates: oral val-isatoribine, 32 mg/kg isatoribine equivalent applied dose.
[12] abbreviates: oral val-isatoribine, 64 mg/kg isatoribine equivalent applied dose.

For the compound `CC(C)[C@H](N)C(=O)OC[C@H]1O[C@@H](n2c(=O)sc3c(O)nc(N)nc32)[C@H](O)[C@@H]1O` (as salt: hydrochloride) [Compound 3, 5-Amino-3-(5′-O-L-valinyl-β-D-ribofuranosyl)thiazolo[4,5-d]pyrimidine-2,7-dione Dihydrochloride], the melting point is 166 to 168 °C (dec.).

Take `CN[C@H](C(=O)OC[C@H]1O[C@@H](n2c(=O)sc3c(O)nc(N)nc32)[C@H](O)[C@@H]1O)C(C)C` (as salt: hydrochloride) [Compound 11, 5-Amino-3-(5′-O-[α-L-N-methylvalinyl]-β-D-ribofuranosyl)thiazolo[4,5-d]pyrimidine-2,7-dione Hydrochloride]: the melting point was > 180 °C (dec.).

As for `Nc1nc2c(sc(=O)n2[C@@H]2O[C@H](CO)[C@@H](O)[C@H]2O)c(=O)[nH]1` [Compound 1, 5-amino-3-β-D-ribofuranosylthiazolo[4,5-d]pyrimidine-2,7-dione, reference compound], in data set [1] (mice dosed two times with isatoribine in bicarbonate, 50 mg/kg oral, interval of four hours), the “interferon in plasma (result in words)” value is on record as “no interferon was measurable”. For the same compound, the “mice with detectable interferon in plasma, of the mice used” value in data set [1] is on record as 4 of the 114. Also, the “Emesis or loose stool” value in data set [2], in data set [3] (setting [7]) and in data set [4] (setting [8]) was “Neg” each time. Besides, the “GI lesions or irritation” value is recorded as “Neg” in data set [2]; “Neg” in data set [3] (setting [7]); “Neg” in data set [3] (dogs, oral isatoribine, 5 mg/kg isatoribine equivalent applied dose); “Neg” in data set [4] (setting [8]); “Neg” in data set [4] (IV isatoribine, 50 mg/kg applied dose); “Neg” in data set [4] (IV isatoribine, 100 mg/kg applied dose). Further, the “dogs with multiple, scattered red lesions on the intestinal mucosa (gross histopathologic evaluation)” value in data set [3] (orally administered isatoribine at 10 mg/kg) is on record as “four of eight dogs”. In data set [4] (intravenously administered isatoribine), the “GI tract lesions at necropsy or histopathologic evaluation (result in words)” value is reported as “No lesions were seen in the GI tract”.

As to `CC(C)[C@H](N)C(=O)OC[C@H]1O[C@@H](n2c(=O)sc3c(O)nc(N)nc32)[C@H](O)[C@@H]1O` [Compound 3, 5-Amino-3-(5′-O-L-valinyl-β-D-ribofuranosyl)thiazolo[4,5-d]pyrimidine-2,7-dione Dihydrochloride], the “interferon in plasma (result in words)” value in data set [1] (mice dosed orally with val-isatoribine in bicarbonate, equivalent to 50 mg/kg isatoribine) is “interferon was readily measurable at 1.0 hour, 1.5 hours, and 2.0 hours after dosing”. In addition, in data set [1], the “mice with detectable interferon in plasma, of the mice used” value is 10 of the 30. Also, in data set [1] (mice, oral dosing, Tables 1-3), the “increase of the magnitude of both the average and peak interferon response over isatoribine” value is given as “twofold”. The “maximum concentrations of isatoribine after oral dosing compared to isatoribine itself” value in data set [5] is “at least doubled”. Also, the “Emesis or loose stool” value in data set [4] (setting [9]), in data set [4] (setting [10]), in data set [4] (setting [11]) and in data set [4] (setting [12]) was “Neg” each time. For the same compound, the “GI lesions or irritation” value in data set [4] (setting [9]) is reported as “Neg”; in data set [4] (setting [10]), “Neg”; in data set [4] (setting [11]) it was “Neg”; in data set [4] (setting [12]) it was “Neg”; in data set [4] (oral val-isatoribine, 130 mg/kg isatoribine equivalent applied dose), “Neg”; in data set [4] (oral val-isatoribine, 260 mg/kg isatoribine equivalent applied dose) it was “Neg”. Besides, the “GI lesions or irritation” value in data set [4] (oral val-isatoribine, 390 mg/kg isatoribine equivalent applied dose) is reported as “Neg”. Moreover, in data set [4] (orally administered val-isatoribine), the “GI lesions (result in words)” value was “No GI lesions were found”.

For `COc1nc(N)nc2c1sc(=O)n2[C@@H]1O[C@H](CO)[C@@H](O)[C@H]1O` [Compound 14, 5-Amino-3-β-D-ribofuranosyl-7-methoxy-thiazolo[4,5-d]pyrimidin-2-one], the melting point is > 160 °C (dec.).

For `Nc1nc(N)c2sc(=O)n([C@@H]3O[C@H](CO)[C@@H](O)[C@H]3O)c2n1` [Compound 15, 5,7-Diamino-3-β-D-ribofuranosylthiazolo[4,5-d]pyrimidin-2-one], the melting point was > 155 °C (dec.).

The compound `CNc1nc(N)nc2c1sc(=O)n2[C@@H]1O[C@H](CO)[C@@H](O)[C@H]1O` [Compound 18] registered a melting point of more than 108 °C.

Regarding `CN(C)c1nc(N)nc2c1sc(=O)n2[C@@H]1O[C@H](CO)[C@@H](O)[C@H]1O` [Compound 20, 5-Amino-7-dimethylamino-3-β-D-ribofuranosylthiazolo[4,5-d]pyrimidin-2-one], the melting point is more than 112 °C.

With `Nc1nc(NC2CCCC2)c2sc(=O)n([C@@H]3O[C@H](CO)[C@@H](O)[C@H]3O)c2n1` [Compound 22, 5-Amino-7-cyclopentylamino-3-β-D-ribofuranosylthiazolo[4,5-d]pyrimidin-2-one], the melting point was > 108 °C (dec.).

With `Nc1nc(N2CCCC2)c2sc(=O)n([C@@H]3O[C@H](CO)[C@@H](O)[C@H]3O)c2n1` [Compound 23, 5-Amino-7-pyrrolidino-3-β-D-ribofuranosylthiazolo[4,5-d]pyrimidin-2-one], the melting point is > 112.4 °C (dec.).

Turning to `CC(=O)OC[C@H]1O[C@@H](n2c(=O)sc3cnc(N)nc32)[C@H](OC(C)=O)[C@@H]1OC(C)=O` [Compound 78, 5-Amino-3-(2′,3′,5′-tri-O-acetyl-β-D-ribofuranosyl)-3H-thiazolo[4,5-d]pyrimidin-2-one], the “Caco2 transport compared with 79 (result in words)” value in the data set on Caco-2 cells is recorded as “significantly improved transport over 79”. Besides, in data set [6], the “Monkey Hepatocytes” value is 20% and the “conversion to 1 compared with 79 (result in words)” value is recorded as “more extensively converted to 1 than is 79”.

In the case of `Nc1ncc2sc(=O)n([C@@H]3O[C@H](CO)[C@@H](O)[C@H]3O)c2n1` [Compound 79, 5-Amino-3-β-D-ribofuranosyl-3H-thiazolo-[4,5-d]pyrimidin-2-one], the melting point was 220 °C (dec.). Besides, in data set [6], the “Monkey Hepatocytes” value came to 10%.

Consider `CC(=O)O[C@@H]1[C@H](OC(C)=O)[C@@H](CO)O[C@H]1n1c(=O)sc2cnc(N)nc21` [Compound 89, 5-Amino-3-(2′,3′-di-O-acetyl-β-D-ribofuranosyl)-3H-thiazolo[4,5-d]pyrimidin-2-one], for which the “Caco2 transport compared with 79 (result in words)” value in the data set on Caco-2 cells was “significantly improved transport over 79”. In addition, in data set [6], the “Monkey Hepatocytes” value worked out at 45% and the “conversion to 1 compared with 79 (result in words)” value is listed as “more extensively converted to 1 than is 79”.
